# Source: article PMC8165160, “Substrate Specificities and Inhibition Pattern of the Solute Carrier Family 10 Members NTCP, ASBT and SOAT” (Frontiers in Molecular Biosciences, 2021)
# Counter-ions that a name gives are not always drawn. Like-named read-outs stand apart in the source and are kept apart here.
# What was measured:
# NTCP [1] = molecular target: T1, NTCP (Homo sapiens, UniProt Q14973); test: Binding of fluorescent myr-preS1-Al633 peptide to NTCP-HEK293 cells; set-up: The full-length open reading frames of NTCP, ASBT, and SOAT were cloned; expressed in transfected cells; host or cells: Flp-In T-REX HEK293 (NTCP-HEK293), tetracycline-induced
# T1 sequence (Q14973 1-349): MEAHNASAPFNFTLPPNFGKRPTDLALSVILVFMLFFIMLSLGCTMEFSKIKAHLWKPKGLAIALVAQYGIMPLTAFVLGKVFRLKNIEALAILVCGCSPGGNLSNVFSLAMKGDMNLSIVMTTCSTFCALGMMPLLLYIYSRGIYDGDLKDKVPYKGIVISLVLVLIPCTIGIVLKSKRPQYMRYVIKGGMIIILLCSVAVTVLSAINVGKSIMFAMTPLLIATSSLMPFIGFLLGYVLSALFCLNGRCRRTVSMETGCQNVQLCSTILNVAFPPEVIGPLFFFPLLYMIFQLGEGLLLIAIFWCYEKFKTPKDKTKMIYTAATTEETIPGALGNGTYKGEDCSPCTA
# Method: NTCP-HEK293 cells were seeded into 24-well-dishes as described above. For every set of induced wells an equal number of not-induced wells were used as respective background controls. Cells were washed three times with PBS and then preincubated with sodium transport buffer supplemented with MEM-amino acid solution (ThermoFisher) at 1:50 dilution at 37°C for 5 min. The fluorescent myr-preS1-Al633 peptide was added with a final concentration of 10 nM and binding experiments were performed over 10 min at 37°C. […] For calculation of the NTCP-specific binding signal, the mean background signal from the not-induced cells was subtracted. Net binding rates in the absence of any inhibitor were set to 100%.
# (B) Binding of the fluorescent myr-preS1-Al633 peptide was analyzed in NTCP-HEK293 cells in the presence of increasing concentrations of TC, DHEAS, or TLC. […] Fluorescence was quantified by a fluorescence reader and values are expressed as percentage of control.
# ASBT = molecular target: T2, ASBT (Homo sapiens, UniProt Q12908); test: Transport inhibition in ASBT-HEK293 cells; format: cell-based; conditions: substrate inhibitors, 1 min after 5 min preincubation
# T2 construct: The full-length open reading frames of NTCP, ASBT, and SOAT were cloned; expressed in transfected cells; host or cells: Flp-In T-REX HEK293 (ASBT-HEK293), tetracycline-induced
# T2 sequence (Q12908 1-348): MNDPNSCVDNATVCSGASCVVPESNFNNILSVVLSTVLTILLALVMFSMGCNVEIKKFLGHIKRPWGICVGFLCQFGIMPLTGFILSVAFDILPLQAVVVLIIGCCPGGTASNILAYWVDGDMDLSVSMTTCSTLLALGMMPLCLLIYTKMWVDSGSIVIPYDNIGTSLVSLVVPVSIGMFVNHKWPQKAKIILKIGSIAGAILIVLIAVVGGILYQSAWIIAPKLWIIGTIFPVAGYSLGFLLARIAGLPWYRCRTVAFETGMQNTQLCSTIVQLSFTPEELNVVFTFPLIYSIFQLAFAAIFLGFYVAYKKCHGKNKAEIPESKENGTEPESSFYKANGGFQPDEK
# Method: Cells were washed three times with PBS and were preincubated with the respective inhibitor in sodium transport buffer for 5 min at 37°C. Uptake was initiated by adding the respective radiolabeled substrate to the well and incubating for a fixed time as indicated in the figures at 37°C. Transport was terminated by removing the transport buffer and washing five-times with ice-cold PBS. Cell monolayers were lysed in 1 N NaOH with 0.1% SDS and the cell-associated radioactivity and protein content was determined as described above. For uptake inhibition with the myr-preS1 peptide the sodium transport buffer contained additionally MEM-amino acid solution (ThermoFisher) at 1:50 dilution.
# All transport or inhibition graphs were generated with GraphPad Prism 6.0 (GraphPad). Determination of IC50 values was done by nonlinear regression analysis using the equation log (inhibitor) vs. response settings. If not stated otherwise in the legends all data represent means ± SD of at least triplicate determinations of representative experiments.
# FIGURE 3 Inhibition of NTCP, ASBT, and SOAT with substrate inhibitors. Transport of [^3H]TC, [^3H]TLC, and [^3H]DHEAS was analyzed in NTCP-HEK293, ASBT-HEK293, and SOAT-HEK293 cells in the presence of the substrate inhibitors TC, TLC, and DHEAS at increasing concentrations ranging from 100 nM till 1000 µM. After 5 min of preincubation with the respective inhibitory compound, 200 nM [^3H]TLC, [^3H]TC or [^3H]DHEAS were added for additional 1 min and the cell lysates were analyzed by liquid scintillation counting. Unspecific uptake of HEK293-FlpIn cells was set to 0%. Carrier-specific uptake without inhibitor was set to 100%.
# Transport of [^3H]TC, [^3H]TLC, and [^3H]DHEAS was analyzed in NTCP-HEK293, ASBT-HEK293, and SOAT-HEK293 cells in the presence of different supposed non-substrate triterpenoid inhibitors as indicated at increasing concentrations ranging from 100 nM till 1000 µM. After 5 min of preincubation with the respective inhibitory compound, 1 µM [^3H]TLC, [^3H]TC or [^3H]DHEAS were added for additional 10 min at 37°C and the cell lysates were analyzed by liquid scintillation counting. Experiments performed without inhibitor were set to 100%. Means of negative controls were subtracted to calculate net transport rates (expressed as percentage of control). Data represent means ± SD of quadruplicate determinations of representative experiments.
# NTCP [2] = molecular target: T1, NTCP; test: Transport inhibition in NTCP-HEK293 cells; conditions: substrate inhibitors, 1 min after 5 min preincubation
# [3] = NTCP IC50, substrate [3H]DHEAS, 200 nM [3H]DHEAS
# [4] = NTCP IC50, substrate [3H]TC, 200 nM [3H]TC
# [5] = NTCP IC50, substrate [3H]TLC, 200 nM [3H]TLC
SMILES,IC50 (NTCP [1]) [µM],"IC50 (ASBT; ASBT IC50, substrate [3H]TC, 200 nM [3H]TC) [µM]","IC50 (ASBT; ASBT IC50, substrate [3H]TLC, 200 nM [3H]TLC) [µM]",IC50 (NTCP [2]; [3]) [µM],IC50 (NTCP [2]; [4]) [µM],IC50 (NTCP [2]; [5]) [µM],"IC50 (NTCP [1]; 10 nM myr-preS1-Al633, 10 min, 37°C, NTCP-HEK293, read-out: IC50 for inhibition of myr-preS1 peptide binding to NTCP) [µM]","IC50 (ASBT; 200 nM [3H]TC, read-out: ASBT IC50, substrate [3H]TC) [µM]","IC50 (ASBT; 200 nM [3H]TLC, read-out: ASBT IC50, substrate [3H]TLC) [µM]"
"C[C@]12CC[C@H](OS(=O)(=O)O)CC1=CC[C@@H]1[C@@H]2CC[C@]2(C)C(=O)CC[C@@H]12 [DHEAS, Dehydroepiandrosterone sulfate]",52,453,> 1000,3.4,21.5,432,,,
C[C@H](CCC(=O)NCCS(=O)(=O)O)[C@H]1CC[C@H]2[C@@H]3CC[C@@H]4C[C@H](O)CC[C@]4(C)[C@H]3CC[C@]12C [Taurolithocholic acid],,,,1.8,1.7,1.4,4.3,1.9,4
